ChEMBL document CHEMBL1201862, “PubChem BioAssay data set” (2004)
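Interpolation was linear, between the two tested concentrations surrounding the appropriate level; five concentrations were tested over 48 hours in 96-well plates. GI50: concentration for 50% inhibition of growth.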 Active and inactive are the calls of the source. Rule as the data show it: active = GI50 up to about 1.1 µM and inactive = higher.

How the values were obtained:
Experiment in all cases: NCI anticancer screen, dose series, 48 h
UACC-62 = test system: UACC-62
OVCAR-3 = test system: OVCAR-3
UO-31 = test system: UO-31
RXF 393 = test system: RXF 393
K562 = test system: K562
SF-539 = test system: SF-539
SNB-75 = test system: SNB-75
LOX IMVI = test system: LOX IMVI
SK-MEL-28 = test system: SK-MEL-28
SNB-19 = test system: SNB-19
M14 = test system: M14
SK-MEL-2 = test system: SK-MEL-2
SK-MEL-5 = test system: SK-MEL-5
NCI-H460 = test system: NCI-H460
COLO 205 = test system: COLO 205
HT-29 = test system: HT-29
U-251 = test system: U-251

Measured: GI50

Nc1nc[n+](Cc2ccccc2)c2ncn(Cc3ccccc3)c12
inactive: UACC-62 32.4 µM | OVCAR-3 38.6 µM | UO-31 39.3 µM | RXF 393 20.2 µM | K562 37.7 µM | SF-539 > 100 µM | SNB-75 34.9 µM | LOX IMVI > 100 µM | SK-MEL-28 > 100 µM | SNB-19 > 100 µM | M14 23.7 µM | SK-MEL-2 > 100 µM | SK-MEL-5 97.5 µM | NCI-H460 > 100 µM | COLO 205 26.7 µM | HT-29 31.6 µM | U-251 45.7 µM

N=C1SCCS1
inactive: UACC-62 > 100 µM | OVCAR-3 > 100 µM | UO-31 > 100 µM | K562 > 100 µM | SF-539 > 100 µM | SNB-75 36.2 µM | LOX IMVI > 100 µM | SK-MEL-28 > 100 µM | SNB-19 > 100 µM | M14 > 100 µM | SK-MEL-2 > 100 µM | SK-MEL-5 > 100 µM | NCI-H460 > 100 µM | COLO 205 > 100 µM | HT-29 > 100 µM | U-251 > 100 µM

C=C(Br)C(C)(Br)CCC(Br)C(C)(C)Br (stereo unspecified)
inactive: UACC-62 21 µM | UO-31 60.7 µM | RXF 393 46.6 µM | K562 21.4 µM | SF-539 19.3 µM | SNB-75 28.3 µM | LOX IMVI 16.5 µM | SK-MEL-28 19.1 µM | M14 23.7 µM | SK-MEL-2 24.5 µM | SK-MEL-5 33.5 µM | NCI-H460 33.7 µM | COLO 205 19.3 µM | HT-29 38.8 µM | U-251 17.1 µM

O=C1/C(=C\c2ccccc2)c2ccccc2N1/N=C\c1ccccc1
inactive: UACC-62 90.4 µM | OVCAR-3 91.8 µM | UO-31 > 100 µM | K562 42.7 µM | SF-539 > 100 µM | SNB-75 29 µM | LOX IMVI > 100 µM | SK-MEL-28 > 100 µM | SNB-19 > 100 µM | M14 > 100 µM | SK-MEL-2 > 100 µM | SK-MEL-5 48.4 µM | NCI-H460 > 100 µM | COLO 205 > 100 µM | HT-29 25.1 µM | U-251 > 100 µM

C[N+](C)(C)CC(=O)N/N=C(/Cc1nc2ccc(Cl)cc2nc1O)C1=NS(=O)(=O)c2cc(S(N)(=O)=O)c(Cl)cc2N1
inactive: UACC-62 > 100 µM | OVCAR-3 > 100 µM | UO-31 > 100 µM | RXF 393 > 100 µM | K562 > 100 µM | SF-539 > 100 µM | SK-MEL-28 > 100 µM | SNB-19 > 100 µM | SK-MEL-2 > 100 µM | SK-MEL-5 > 100 µM | NCI-H460 > 100 µM | COLO 205 > 100 µM | HT-29 > 100 µM

O=C1OC2C=CC1C1(CCOC1=O)C2 (stereo unspecified)
inactive: UACC-62 28.8 µM | OVCAR-3 > 100 µM | UO-31 > 100 µM | K562 > 100 µM | SF-539 > 100 µM | SNB-75 46.8 µM | LOX IMVI > 100 µM | SK-MEL-28 > 100 µM | SNB-19 > 100 µM | M14 > 100 µM | SK-MEL-2 > 100 µM | SK-MEL-5 > 100 µM | NCI-H460 > 100 µM | COLO 205 > 100 µM | U-251 > 100 µM

COc1ccccc1/C=C(\NC(=O)c1ccccc1)c1nc2ccc(Cl)cc2[nH]1
inactive: UACC-62 17.5 µM | OVCAR-3 18.5 µM | UO-31 18 µM | RXF 393 22.4 µM | K562 27.4 µM | SF-539 56.2 µM | SNB-75 22.4 µM | LOX IMVI 37.2 µM | SK-MEL-28 27.1 µM | SNB-19 29.5 µM | M14 34.9 µM | SK-MEL-2 25.6 µM | SK-MEL-5 17.3 µM | NCI-H460 33.8 µM | COLO 205 19.1 µM | HT-29 30.8 µM | U-251 30.5 µM

[O-][n+]1c2cc(CBr)c(CBr)cc2[n+]([O-])c2c(O)cccc21
inactive: UACC-62 1.79 µM | OVCAR-3 2.22 µM | UO-31 1.93 µM | RXF 393 1.76 µM | K562 1.22 µM | SNB-75 2.11 µM | LOX IMVI 1.35 µM | SK-MEL-28 1.76 µM | SNB-19 5.26 µM | M14 1.75 µM | SK-MEL-2 2.22 µM | SK-MEL-5 2.1 µM | NCI-H460 1.91 µM | COLO 205 1.77 µM | HT-29 2.01 µM | U-251 2.9 µM

CC1=CCN(c2ccccn2)OC1c1ccccc1 (stereo unspecified)
inactive: UACC-62 > 100 µM | OVCAR-3 > 100 µM | UO-31 59.8 µM | RXF 393 62.8 µM | K562 > 100 µM | SF-539 > 100 µM | SNB-75 > 100 µM | LOX IMVI > 100 µM | SK-MEL-28 > 100 µM | SNB-19 > 100 µM | M14 > 100 µM | SK-MEL-2 > 100 µM | NCI-H460 > 100 µM | COLO 205 > 100 µM | HT-29 > 100 µM | U-251 > 100 µM
